The source of these data is patent US20260335299A1, “SUBSTITUTED OXOISOINDOLINYL PIPERIDINE-2,6-DIONE COMPOUND AS ANTICANCER AGENT” (BRISTOL-MYERS SQUIBB COMPANY, priority 2023, published 2026).

Assay [1] has as its target T1, IKZF1 Ikaros (Homo sapiens, UniProt Q13422+Q96SW2). Description: Human Regulatory T Cell Degradation Assay (Ikaros). It counts as cell-based. Conditions: human regulatory T cells, 20 h; concentration reducing protein level by 50% compared to DMSO alone. The method, then: Cryopreserved human regulatory T cells were thawed in RPMI+10% FBS+20 ng/mL IL-2. After being spun at 1200 rpm for 5 mins, the cells were resuspended in RPMI+10% FBS+20 ng/ml and rested at 37° C. with 5% CO2 for 3 hours. The cells were then plated at 40,000 cells/well in 40 μL RPMI+10% FBS+20 ng/mL human IL-2 in a 384 well cell culture plate prior to using acoustic dispensing technology (ECHO 555) for adding compounds of interest. Cell cultures were incubated for 20 hours at 37° C. and 5% CO2. In order to facilitate analysis, cell cultures were spun down at 1200 rpm for 5 minutes and the supernatant was discarded using an EL406 plate washer. After washing three times with […] PBS, cell pellets were resuspended in 50 μL of […] viability staining solution (Life Technologies, Cat #L34975) and incubated for 30 minutes on ice protected from light. Cells were washed three times with 70 μL PBS+0.5% BSA using an EL406 plate washer. After shaking the plate to dislodge the cell pellet, cells were resuspended in 50 μL of Fixation Buffer (eBioScience FoxP3 buffer set 00-5523-00) for 60 minutes at room temperature. After centrifuging and discarding the supernatant, cells were permeabilized with 50 μL of permeabilization buffer (eBioScience FoxP3 buffer set 00-5523-00) for 10 minutes at room temperature. Following permeabilization, cells were spun down and the supernatant was replaced with 30 μL fluorescently labelled antibodies against the intracellular targets Helios (Helios-APC [BioLegend, Cat #137222, 1:50])]), Aiolos, and Ikaros 1× Permeabilization buffer and staining reactions were incubated for 1 hour at room temperature; protected from light. Subsequently, […] Permeabilization buffer was added prior to centrifuging the cells and discarding the supernatant. Stained cells were resuspended in 30 μL of flow cytometry staining buffer (PBS+0.5% BSA) and analyzed using an Intellicyt Ique Plus flow cytometer.
Table B-1 lists the maximum observed degradation of the IKZF1 protein and IKZF2 protein as measured in the Human Regulatory T Cell Degradation assay. The results in Table B-1 were rounded to two digits. In the Human Regulatory T Cell Degradation assay, a value of 100% indicated no detectable protein remaining or complete degradation of the protein; and a value of 0% indicated no detectable degradation of the protein by the test compound.

For assay [2], the target named is T1, IKZF1 Ikaros. In words: Jurkat Cellular Degradation Assay (Ikaros). Also on record: endogenous in cells; host or cells: Jurkat cells. The conditions noted are these: Jurkat cells, 72 h; concentration reducing protein level by 50% compared to DMSO alone. It counts as cell-based. The method, then: (§1) Jurkat cells were plated at 80,000 cells/well in 40 μL RPMI+10% FBS in a 384-well cell culture plate prior to using acoustic dispensing technology for adding a compound of interest. Cell cultures were incubated for 72 h at 37° C. and 5% CO2. In order to facilitate analysis, cell cultures were spun down at 200 rpm for 5 min and the supernatant was discarded. After shaking the plate to dislodge the cell pellet, cells were resuspended in 50 μL of Fixation Buffer (eBioscience FoxP3 buffer set 00-5523-00) for 60 min at room temperature. After centrifuging and discarding the supernatant, cells were permeabilized with 50 μL of Permeabilization buffer (eBioscience FoxP3 buffer set 00-5523-00) for 10 min at room temperature. Following permeabilization, cells were spun down and the supernatant was replaced with 20 μL fluorescently labelled antibodies against Helios, Ikaros and Aiolos or corresponding Isotype controls in 1× Permeabilization buffer (Ikaros-Alexa488 [Biolegend, Cat #368408, 1:50], Helios-PE [CST, Cat #29360, 1:50], Aiolos-Alexa647 [Biolegend, Cat #371106 Biolegend, 1:25]) and staining reactions were incubated for 1 h at room temperature while protected from light. Subsequently, 30 μL of 1× Permeabilization buffer was added prior to centrifuging the cells and discarding the supernatant. Stained cells were resuspended in 25 μL of flow cytometry staining buffer [PBS+0.2% bovine serum albumin (BSA)] and analyzed using an Intellicyt Ique Plus flow cytometer.
(§2) Table A-1 lists the maximum observed degradation of the IKZF1 protein, IKZF2 protein, and IKZF3 protein as measured in the Jurkat Cellular Degradation assay. The results in Table A-I were rounded to two digits. In the Jurkat Cellular Degradation assay, a value of 100% indicated no detectable protein remaining or complete degradation of the protein; and a value of 0% indicated no detectable degradation of the protein by the test compound.

Assay [3] addresses T2, IKZF3 Aiolos (Homo sapiens, UniProt Q96SW2+Q9UKT9). In words: Jurkat Cellular Degradation Assay (Aiolos). It counts as cell-based. The conditions noted are these: Jurkat cells, 72 h; concentration reducing protein level by 50% compared to DMSO alone. Also noted: endogenous in cells; host or cells: Jurkat cells. The method, then:
as §1, §2

In assay [4] the target is T1, IKZF1 Ikaros. Description: Human CD8+ T Cell Reprogramming (Degradation) Assay (Ikaros). It counts as cell-based. Also on record: Cryopreserved healthy donor human peripheral blood mononuclear cells (PBMC); endogenous in cells; host or cells: CD8+ T cells within healthy donor human PBMC. The conditions noted are these: CD8+ T cells, human PBMC, 24 h; concentration reducing protein level by 50% compared to DMSO alone. The method, then:
(§3) Cryopreserved healthy donor human peripheral blood mononuclear cells (PBMC) from healthy donors were thawed and seeded at 500,000 cells/well of 96-well round bottom plates in RPMI 1640 media (Gibco) supplemented with 10% FBS, Pen/Strep (Gibco), MEM-NEAA (Gibco), and sodium pyruvate (Gibco). Cells were treated with titrated doses of compound for 24 hours at 37° C., 5% CO2 before analyzing by flow cytometry.
(§4) For flow cytometry staining, cells were washed twice with flow cytometry staining buffer (Thermo Fisher) and incubated in Human Tru-stain Fc block (Biolegend) for 10 minutes before adding eFluor780 viability dye (Thermo Fisher) and surface marker antibody cocktail containing LD-eFluor780, CD3-BUV-395, CD4-BUV805, CD8-FITC, and CD25-BV605 for 30 minutes at 4° C. Cells were then fixed and permeabilized by incubation with permeabilization buffer (eBioscience FoxP3 buffer set 00-5523-00) for 30 minutes at 4° C. as per the kit manufacturer's instructions. Cells were washed twice with the Perm/Wash buffer supplied in the kit as per the manufacturer's instructions and incubated overnight at 4° C. with an intracellular antibody cocktail comprised of antibodies specific for the transcription factors (i.e., Foxp3-BV421, HELIOS-PE-Cy7, EOS-PE, IKAROS-PECF594, AIOLOS-AF647). Cells were washed twice with Perm/Wash buffer and resuspended in flow cytometry staining buffer (Thermo Fisher) prior to acquisition. Sample acquisition and analysis was performed using a BD LSRFortessa (BD Biosciences) flow cytometer. Single-stain controls for each fluorochrome were prepared using UltraComp eBead Compensation Beads (Thermo Fisher). Data were analyzed using FlowJo version 10 and GraphPad Prism Software.
(§5) Table D-1 lists the maximum observed degradation of the IKZF1 protein and IKZF3 protein as measured in the Human CD8^+ T Cell Reprogramming assay. The results in Table D-1 were rounded to two digits. In the Human CD8^+ T Cell Reprogramming assay, a value of 100% indicated no detectable protein remaining or complete degradation of the protein; and a value of 0% indicated no detectable degradation of the protein by the test compound.

For assay [5], the target named is T2, IKZF3 Aiolos. Description: Human CD8+ T Cell Reprogramming (Degradation) Assay (Aiolos). It counts as cell-based. Also noted: Cryopreserved healthy donor human peripheral blood mononuclear cells (PBMC); endogenous in cells; host or cells: CD8+ T cells within healthy donor human PBMC. Conditions: CD8+ T cells, human PBMC, 24 h; concentration reducing protein level by 50% compared to DMSO alone. The method, then: as §3, §4, §5

The subject of another assay is solid tumors. Conditions: sometimes; patients with solid tumors / advanced malignancies; cited from earlier work.

Where only a bound is given, the exact number is not on record here.

T1 sequence (Q13422 whole entry): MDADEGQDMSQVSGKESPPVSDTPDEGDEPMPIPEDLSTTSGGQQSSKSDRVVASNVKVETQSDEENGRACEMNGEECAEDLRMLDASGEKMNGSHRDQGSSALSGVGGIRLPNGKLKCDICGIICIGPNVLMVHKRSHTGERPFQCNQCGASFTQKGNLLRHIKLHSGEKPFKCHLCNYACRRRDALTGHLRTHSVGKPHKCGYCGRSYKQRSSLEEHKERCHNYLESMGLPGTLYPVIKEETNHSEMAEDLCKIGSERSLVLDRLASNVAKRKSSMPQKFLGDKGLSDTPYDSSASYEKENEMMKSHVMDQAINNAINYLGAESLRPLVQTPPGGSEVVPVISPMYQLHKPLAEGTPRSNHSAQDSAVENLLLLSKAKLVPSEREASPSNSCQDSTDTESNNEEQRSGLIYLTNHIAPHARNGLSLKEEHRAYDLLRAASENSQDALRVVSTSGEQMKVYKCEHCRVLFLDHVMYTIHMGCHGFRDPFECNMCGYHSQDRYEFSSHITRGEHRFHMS
T1 sequence (Q96SW2 whole entry): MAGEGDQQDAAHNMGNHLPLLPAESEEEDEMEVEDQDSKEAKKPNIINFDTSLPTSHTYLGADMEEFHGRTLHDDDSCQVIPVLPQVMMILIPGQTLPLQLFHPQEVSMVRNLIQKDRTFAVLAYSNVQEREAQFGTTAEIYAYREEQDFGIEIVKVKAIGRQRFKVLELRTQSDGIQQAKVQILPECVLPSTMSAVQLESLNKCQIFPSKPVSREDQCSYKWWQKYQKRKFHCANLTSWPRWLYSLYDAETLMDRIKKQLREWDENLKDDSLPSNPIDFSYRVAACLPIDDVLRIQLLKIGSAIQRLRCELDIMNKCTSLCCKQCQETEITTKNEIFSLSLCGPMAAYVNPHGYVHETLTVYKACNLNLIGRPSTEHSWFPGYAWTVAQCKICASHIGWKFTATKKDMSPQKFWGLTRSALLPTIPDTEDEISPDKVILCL
T1 sequence (Q16531 whole entry partner): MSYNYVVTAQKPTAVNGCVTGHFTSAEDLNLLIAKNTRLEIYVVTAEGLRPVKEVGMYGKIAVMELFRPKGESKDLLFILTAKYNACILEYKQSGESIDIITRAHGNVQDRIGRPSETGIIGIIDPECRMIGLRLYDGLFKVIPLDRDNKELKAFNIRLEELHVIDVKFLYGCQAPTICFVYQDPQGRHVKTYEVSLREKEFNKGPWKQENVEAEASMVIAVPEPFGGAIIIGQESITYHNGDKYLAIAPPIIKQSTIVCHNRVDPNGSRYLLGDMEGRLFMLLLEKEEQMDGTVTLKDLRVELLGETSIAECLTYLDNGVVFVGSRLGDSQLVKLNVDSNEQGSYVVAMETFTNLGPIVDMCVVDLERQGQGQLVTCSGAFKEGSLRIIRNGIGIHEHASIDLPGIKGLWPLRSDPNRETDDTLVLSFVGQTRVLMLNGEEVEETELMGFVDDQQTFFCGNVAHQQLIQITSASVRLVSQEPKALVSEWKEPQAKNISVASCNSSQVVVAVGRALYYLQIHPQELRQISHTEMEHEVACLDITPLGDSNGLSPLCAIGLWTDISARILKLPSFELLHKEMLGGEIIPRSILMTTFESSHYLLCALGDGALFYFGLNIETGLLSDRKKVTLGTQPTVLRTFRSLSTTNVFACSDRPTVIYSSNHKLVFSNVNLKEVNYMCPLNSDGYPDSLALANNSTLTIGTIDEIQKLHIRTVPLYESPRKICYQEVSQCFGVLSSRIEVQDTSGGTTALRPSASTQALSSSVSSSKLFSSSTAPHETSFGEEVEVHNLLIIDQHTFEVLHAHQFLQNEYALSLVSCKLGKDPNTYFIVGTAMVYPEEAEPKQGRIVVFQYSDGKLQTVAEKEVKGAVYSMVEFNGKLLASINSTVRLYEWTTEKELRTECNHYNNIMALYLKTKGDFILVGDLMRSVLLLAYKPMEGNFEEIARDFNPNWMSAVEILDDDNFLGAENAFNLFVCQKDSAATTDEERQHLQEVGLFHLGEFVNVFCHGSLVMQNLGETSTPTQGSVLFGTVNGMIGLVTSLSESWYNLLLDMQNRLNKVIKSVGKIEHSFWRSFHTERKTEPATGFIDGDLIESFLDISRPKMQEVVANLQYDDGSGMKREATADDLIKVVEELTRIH
T2 sequence (Q9UKT9 whole entry): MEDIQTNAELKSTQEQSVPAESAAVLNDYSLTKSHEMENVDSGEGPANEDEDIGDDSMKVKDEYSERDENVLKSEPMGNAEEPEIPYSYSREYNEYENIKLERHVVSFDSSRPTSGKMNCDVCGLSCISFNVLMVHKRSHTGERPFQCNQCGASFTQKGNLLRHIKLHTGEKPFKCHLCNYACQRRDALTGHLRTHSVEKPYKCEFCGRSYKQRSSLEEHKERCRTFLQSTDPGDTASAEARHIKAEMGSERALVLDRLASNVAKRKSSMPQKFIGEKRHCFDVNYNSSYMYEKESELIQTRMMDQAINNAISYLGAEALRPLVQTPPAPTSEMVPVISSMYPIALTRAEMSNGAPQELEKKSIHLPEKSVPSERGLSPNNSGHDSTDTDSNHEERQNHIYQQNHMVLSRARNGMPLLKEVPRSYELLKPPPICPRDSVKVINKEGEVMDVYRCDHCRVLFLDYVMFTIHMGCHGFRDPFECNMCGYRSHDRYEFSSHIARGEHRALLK
T2 sequence (Q96SW2 whole entry): as the sequence (Q96SW2 whole entry) above
T2 sequence (Q16531 whole entry partner): as the sequence (Q16531 whole entry partner) above

Regarding `O=C1CCC(N2Cc3c(ccc(-c4cc(CN5CC(c6ccccc6)C5)ccn4)c3F)C2=O)C(=O)N1` (stereo not shown) [Comparative Compound A, 3-(4-fluoro-1-oxo-5-(4-((3-phenylazetidin-1-yl)methyl)pyridin-2-yl)isoindolin-2-yl) piperidine-2,6-dione, reference compound], the DC50 (usually the concentration giving 50% degradation) at IKZF1 Ikaros [1] is more than 10 µM; at IKZF1 Ikaros [2] it was more than 10 µM; on IKZF3 Aiolos [3], more than 10 µM; at IKZF1 Ikaros [4], more than 1000 nM; at IKZF3 Aiolos [5] it was more than 1000 nM.

In the case of `Nc1nc(-c2ccc3c(c2)CN(C2CCC(=O)NC2=O)C3=O)ccc1CN1CC2(CCC2)C1` (stereo not shown) [Comparative Compound B, 3-(5-(5-((2-azaspiro[3.3]heptan-2-yl)methyl)-6-aminopyridin-2-yl)-1-oxoisoindolin-2-yl) piperidine-2,6-dione, reference compound], the half-maximal degradation concentration (DC50) was more than 10 µM at IKZF1 Ikaros [1]; more than 10 µM at IKZF1 Ikaros [2]; more than 10 µM on IKZF3 Aiolos [3]; more than 1000 nM at IKZF1 Ikaros [4]; more than 1000 nM on IKZF3 Aiolos [5].

With `Cc1nc2cccc(N)c2c(=O)n1C1CCC(=O)NC1=O` (stereo not shown) [avadomide], the “clinical response in patients with solid tumors” value (“clinical response in patients” for short) in the assay with solid tumors is “modest responses of stable disease”.

Consider `Nc1cccc2c1CN(C1CCC(=O)NC1=O)C2=O` (stereo not shown) [lenalidomide], for which the “clinical response in patients” value in the assay on solid tumors is reported as “modest responses of stable disease”.

On to `Nc1cccc2c1C(=O)N(C1CCC(=O)NC1=O)C2=O` (stereo not shown) [pomalidomide], for which, in the assay on solid tumors, the “clinical response in patients” value is given as “modest responses of stable disease”.
